Where two headings read alike, the source gives them in different places.
Experiments:
[1] = system: Artemia salina; test: Brine shrimp toxicity (lethality) assay; format: in vivo; conditions: 24 h; for survival at 0.1 µM / survival at 1 µM / survival at 10 µM / survival at 30 µM: Artemia salina, read-out: Percentage of Survival of Artemia salina after 24 h
Procedure: The lethality assay of brine shrimp A. salina was developed by Vanhaecke et al.. […] Commercially available A. salina or brine shrimp cysts were purchased and cultivated in 3.2% of saline water. Before cultivation, the saline was aerated, and then cysts were kept at room temperature for 24 h. For toxicity screening, hatched larvae were collected and introduced in saline water. Add 0.9% saline water and approximately the same number of larvae 30 per well to make a 96-wells test culture plate. ATXs with 0.1 μM, 1 μM, 10 μM, 30 μM were added to the test culture plate, while the equal volume of dimethyl sulfoxide (DMSO) (Aladdin, Shanghai, China) and dichloromethane (Aladdin, Shanghai, China) were added as blank control test and positive control separately. After 24 h at 25 °C, the percent of survival of A. salina was calculated (Supplementary Materials 1.3.2).
Figure S1.3.1.2. […]
Figure S1.3.1.3. […]
1.3.2. Brine Shrimp Cytotoxicity Assay
Commercially available Artemia salina (A. salina) or brine shrimp cysts were purchased and cultivated in 3.2% of saline water. Before cultivation, the saline was aerated, and then cysts were kept at room temperature for 24 h. For toxicity screenin g, hatched larvae were collected and introduced in saline water. Add saline water and equivalent larvae in per well of 96 wells to make test culture plate.
Aplysiatoxins with 0.1 μM, 1 μM, 10 μM, 30 μM was added to test culture plate, while DMSO and dichloromethane were added as blank control test and positive control separately. After 24 h in 25 °C, the percent of survival of A. salina was calculated. […]

[2] = target: T1, potassium channel Kv1.5 (Homo sapiens, UniProt P22460); test: Kv1.5 ion channel inhibitory experiment (whole-cell patch clamp, CHO cells); format: cell-based
T1 construct: expressed in transfected cells; host or cells: Chinese hamster ovary (CHO) cells
T1 sequence (P22460 whole entry): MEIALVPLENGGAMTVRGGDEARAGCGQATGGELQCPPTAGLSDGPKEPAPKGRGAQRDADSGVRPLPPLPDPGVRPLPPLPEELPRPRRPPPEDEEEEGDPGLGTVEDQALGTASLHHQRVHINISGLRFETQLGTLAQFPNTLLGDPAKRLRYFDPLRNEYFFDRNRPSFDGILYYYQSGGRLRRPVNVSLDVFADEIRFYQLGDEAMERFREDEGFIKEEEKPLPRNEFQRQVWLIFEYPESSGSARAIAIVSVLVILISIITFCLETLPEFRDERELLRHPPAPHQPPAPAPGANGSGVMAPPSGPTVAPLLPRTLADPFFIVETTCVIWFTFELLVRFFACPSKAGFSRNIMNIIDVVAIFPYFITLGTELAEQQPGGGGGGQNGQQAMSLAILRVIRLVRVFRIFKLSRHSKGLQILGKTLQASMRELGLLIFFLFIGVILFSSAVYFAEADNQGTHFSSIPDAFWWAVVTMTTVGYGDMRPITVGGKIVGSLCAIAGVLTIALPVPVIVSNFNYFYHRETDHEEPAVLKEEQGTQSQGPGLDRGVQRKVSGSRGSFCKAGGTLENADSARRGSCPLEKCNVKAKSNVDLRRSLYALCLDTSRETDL
Procedure: Cell preparation: the day before the experiment, digestion of Chinese hamster ovary (CHO) cells (Sigma Chemical Co., St. Louis, MO, USA) with a density of 60–80% by trypsin, and split into some small glass plates, which placed in 35 mm petri dish, then added 10% fetal bovine serum (FBS) (Gibco, CA, USA), and Dulbecco’s modified eagle medium (DMEM) (HyClone, Logan, UT, USA) culture medium without P/S was cultured overnight in an incubator [35, 36, 37] (Supplementary Materials 1.3.1).
Electrophysiology: the cells were transferred to a perfusion tank and perfused with extracellular fluid. The intracellular fluid (mM) was: K Aspartate, 130; MgCl2, 5; EGTA 5; HEPES, 10; Tris-ATP 4; pH 7.2 (KOH titration). The intracellular fluid was stored in small portions in a refrigerator at −80 °C and thawed on the day of the experiment. The electrodes were filled with intracellular fluid and drawn with PC-10 (Narishige, Japan). Whole-cell patch-clamp recording, noise is filtered using one-fifth of the sampling frequency. The cells were clamped at −80 mV and then depolarized to 20 mV with a square wave lasting 2 s to obtain Kv1.5 current. This procedure is repeated every 20 s. After it was stabilized, compound 1, compound 2, and acacetin were perfused, and when the reaction was stabilized, the strength of the blocking was calculated (Supplementary Materials 1.3.1). […]
detection at 190 nm) to afford twenty‐one subfractions (F.D.1‐21). […]
Electrophysiology. […] After it was stabilized, compound 1, compound 2, and acacetin were perfused, and when the reaction was stabilized, the strength of the blocking was calculated.
Data analysis and statistics. […] The IC50 value was determined by fitting the data points to the equation. […]
Figure S1.3.1.1. (A) Kv1.5 traces elicited by 5 s pulses from −80 to + 20 mV and tail currents recorded at −80 mV in the absence and presence of 0.1 μM, 0.3 μM, 1 μM, 3 μM, 10 μM, and 30 μM neo‐ […]

[3] = target: T1, potassium channel Kv1.5; conditions: read-out: IC50, inhibitory activity against Kv1.5, cited from earlier work
[4] = system: protein kinase C (PKC); conditions: ref [20],[21],[34]; cited from earlier work

Row | Compound | effect on survival of A. salina (in words) ([1]; 30 µM) | survival at 0.1 µM [1] | survival at 1 µM [1] | survival at 10 µM [1] | survival at 30 µM [1] | concentration at which survival of A. salina began to be influenced [1] | further results
1 | COC(CCC(C)C1OC23CC(OC(=O)CC(C(C)O)OC(=O)CC4(CC2(C)CC4(C)O)O3)C1C)c1cccc(O)c1 (centres unmarked) [Compound 1, neo-debromoaplysiatoxin G] | no apparent effect | 98 ± 3.4% | 92.6 ± 1.54% | 92.4 ± 4.71% | 91.8 ± 7.73% | – | IC50 [2]: 1790 ± 220 nM
2 | CO[C@@H](CC[C@H](C)[C@H]1O[C@@]23C[C@H](OC(=O)C2=C(O)[C@H](C)CC3(C)C)[C@@H]1C)c1cccc(O)c1 [NEO-B, neo-debromoaplysiatoxin B] | – | – | – | – | – | – | IC50 ([3]; ref [20],[21],[33]): 300 ± 50 nM
3 | CO[C@@H](CC[C@H](C)[C@H]1O[C@@]23C[C@H](OC(=O)C[C@H]([C@@H](C)O)OC(=O)C[C@](O)(O2)[C@H](C)CC3(C)C)[C@@H]1C)c1cccc(O)c1 [DAT, debromoaplysiatoxin] | – | – | – | – | – | 0.1 µM | survival at 0.1 µM ([1]; 0.1 µM): 70.9 ± 6.3%; survival at 1 µM ([1]; 1 µM): 0%; survival at 10 µM ([1]; 10 µM): 0%; survival at 30 µM ([1]; 30 µM): 0%; PKC activation (in words) [4]: strong PKC activation; IC50 ([3]; ref [33]): 1280 ± 80 nM
4 | COc1ccc(-c2cc(=O)c3c(O)cc(O)cc3o2)cc1 [acacetin] | – | – | – | – | – | – | IC50 ([2]; Kv1.5 expression in CHO cells, holding potential −80 mV, mean ± SEM of 3 to 5 measurements, Hill fit, read-out: IC50, inhibitory effect on Kv1.5 current): 5960 ± 560 nM
5 | COC(CCC(C)C1OC23CC(OC(=O)CC(C(C)O)OC(=O)CC(OC)(O2)C(C)CC3(C)C)C1C)c1cccc(O)c1 (centres unmarked) [3-OCH3 DAT, 3-methoxydebromoaplysaitoxin] | – | 94.5 ± 1.87% | 85.8 ± 6.3% | 0% | 0% | 10 µM | –
6 | COC(CCC(C)C1OC(=O)C(C)(C)CC(C)=C(CC(=O)OC2CC(=O)OC2C)C(=O)CC1C)c1cccc(O)c1 (centres unmarked) [NEO-C, neo-debromoaplysiatoxin C] | – | 98.7 ± 2.31% | 99 ± 1.65% | 98.9 ± 1.92% | 94.9 ± 5.27% | – | –
7 | oscillatoxin E [OAT E] | – | – | – | – | – | – | IC50 ([3]; ref [33]): 790 ± 30 nM
8 | COC(CCC(C)C1OC23CC(OC(=O)CC(C(C)O)OC(=O)CC(=C(C)CC2(C)C)O3)C1C)c1cccc(O)c1 (centres unmarked) [Anhydro DAT, anhydrodebromoaplysiatoxin] | – | 94 ± 3.46% | 91.3 ± 6.94% | 0% | 0% | 10 µM | –
9 | COC(CCC(C)C1OC2(C=CC1C)CC(=O)C(C)CC2(C)C)c1cccc(O)c1 (centres unmarked) [OAT F, osciliatoxin F] | no apparent effect | 97.5 ± 2.2% | 98.8 ± 1.99% | 95.3 ± 1.92% | 85.5 ± 2.91% | – | –
10 | COC(CCC(C)C1OC2(C=CC1C)OC(C)(C(=O)CC(=O)OC1CC(=O)OC1C)CC2(C)C)c1cccc(O)c1 (centres unmarked) [Compound 2, neo-debromoaplysiatoxin H] | no apparent effect | 97.3 ± 2.38% | 98.9 ± 1.93% | 97.3 ± 4.62% | 95.5 ± 1.93% | – | IC50 [2]: 1460 ± 140 nM

Reference: PMC7700248, “Chemical and Biological Study of Novel Aplysiatoxin Derivatives from the Marine Cyanobacterium Lyngbya sp” (Toxins, 2020)
